According to patent US10736883B2, “Triazole furan compounds as agonists of the APJ receptor” (AMGEN INC., priority 2016, dated 2020):

Biological target: APJ receptor (Homo sapiens (Human), UniProt P35414)
Experiment: [35S]GTPγS binding assay on membranes from CHO cells stably expressing human APJ receptor
Type: biochemical
Details: membranes of CHO cells stably expressing human APJ receptor, means of several independent experiments, read-out: Activity hAPJ SPA EC50 IP
Procedure, shortened: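 Membranes from CHO cells stably expressing human APJ were incubated with 0.2 nM [35S]GTPγS and ligands for 90 min at RT in 20 mM HEPES pH 7.5, 5 mM MgCl2, 200 mM NaCl, 3 μM GDP, 0.1% BSA with WGA PS beads. Nonspecific binding was set with 100 μM GTPγS. EC50 came from non-linear regression.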

APJ receptor, sequence (P35414 whole entry): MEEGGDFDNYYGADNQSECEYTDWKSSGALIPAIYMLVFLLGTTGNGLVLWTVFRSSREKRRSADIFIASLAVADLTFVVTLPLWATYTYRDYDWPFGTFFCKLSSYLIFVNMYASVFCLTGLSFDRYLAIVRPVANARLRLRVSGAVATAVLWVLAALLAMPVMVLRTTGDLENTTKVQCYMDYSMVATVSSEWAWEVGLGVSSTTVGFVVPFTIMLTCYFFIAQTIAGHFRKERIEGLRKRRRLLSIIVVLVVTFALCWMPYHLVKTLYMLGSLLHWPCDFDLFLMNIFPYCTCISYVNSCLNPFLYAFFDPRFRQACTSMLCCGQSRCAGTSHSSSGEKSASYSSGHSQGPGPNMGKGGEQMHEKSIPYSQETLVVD

| SMILES | EC50 [nM] |
| --- | --- |
| COc1cccc(OC)c1-n1c(NS(=O)(=O)[C@@H](C)[C@H](O)c2ccc(C#N)cc2F)nnc1-c1ccc(C)o1 (single isomer, unassigned) [Example 61.0] | 0.2 |
| COc1cccc(OC)c1-n1c(NS(=O)(=O)[C@H](C)[C@@H](O)c2ccc(C)cn2)nnc1-c1ccc(C)o1 (single isomer, unassigned) [Example 65.0] | 0.31 |
| COc1cccc(OC)c1-n1c(NS(=O)(=O)[C@@H](C)[C@H](O)c2ncc(C#N)cc2F)nnc1-c1ccc(C)o1 (single isomer, unassigned) [Example 68.0] | 0.37 |
| COc1cccc(OC)c1-n1c(NS(=O)(=O)[C@H](C)[C@H](O)c2ccc(F)cc2CO)nnc1-c1ccc(C)o1 (single isomer, unassigned) [Example 73.0] | 0.49 |
| COc1cccc(OC)c1-n1c(NS(=O)(=O)[C@@H](C)[C@H](O)c2ccc(F)c(C#N)c2)nnc1-c1ccc(C)o1 (single isomer, unassigned) [Example 81.0] | 1.1 |
| COc1cccc(OC)c1-n1c(NS(=O)(=O)[C@H](C)[C@H](O)c2ccc(C#N)c(C)n2)nnc1-c1ccc(C)o1 (single isomer, unassigned) [Example 86.0] | 0.23 |
| COc1cccc(OC)c1-n1c(NS(=O)(=O)[C@H](C)Cc2ncc(F)cn2)nnc1-c1cc(C)c(C)o1 (single isomer, unassigned) [Example 89.0, (R)—N-(4-(2,6-Dimethoxyphenyl)-5-(4,5-dimethylfuran-2-yl)-4H-1,2,4-triazol-3-yl)-1-(5-fluoropyrimidin-2-yl)propane-2-sulfonamide or (S)—N-(4-(2,6-dimethoxyphenyl)-5-(4,5-dimethylfuran-2-yl)-4H-1,2,4-triazol-3-yl)-1-(5-fluoropyrimidin-2-yl)propane-2-sulfonamide] | 1.9 |
| COc1cccc(OC)c1-n1c(NS(=O)(=O)[C@H](C)Cc2ncc(F)cn2)nnc1-c1cc(C)c(C)o1 (single isomer, unassigned) [Example 91.0, (R)—N-(4-(2,6-Dimethoxyphenyl)-5-(4,5-dimethylfuran-2-yl)-4H-1,2,4-triazol-3-yl)-1-(5-fluoropyrimidin-2-yl)propane-2-sulfonamide or (S)—N-(4-(2,6-dimethoxyphenyl)-5-(4,5-dimethylfuran-2-yl)-4H-1,2,4-triazol-3-yl)-1-(5-fluoropyrimidin-2-yl)propane-2-sulfonamide] | 4.2 |
| COc1cccc(OC)c1-n1c(NS(=O)(=O)[C@H](C)[C@@H](O)c2ncc(F)cn2)nnc1-c1ccc(C)o1 (single isomer, unassigned) [Example 93.0, (1R,2S)—N-(4-(2,6-Dimethoxyphenyl)-5-(5-methyl-2-furanyl)-4H-1,2,4-triazol-3-yl)-1-(5-fluoro-2-pyrimidinyl)-1-hydroxy-2-propanesulfonamide or (1S,2R)—N-(4-(2,6-dimethoxyphenyl)-5-(5-methyl-2-furanyl)-4H-1,2,4-triazol-3-yl)-1-(5-fluoro-2-pyrimidinyl)-1-hydroxy-2-propanesulfonamide] | 0.14 |

Next, values leading:

| EC50 [nM] | SMILES |
| --- | --- |
| 0.22 | COc1cccc(OC)c1-n1c(NS(=O)(=O)[C@@H](CCO)[C@H](C)c2ncc(C)cn2)nnc1-c1ccc(C)o1 (single isomer, unassigned) [Example 62.0] |
| 0.24 | COc1cccc(OC)c1-n1c(NS(=O)(=O)[C@@H](C)[C@@H](O)c2ccc(C)cn2)nnc1-c1ccc(C)o1 (single isomer, unassigned) [Example 63.0] |
| 0.32 | COc1cccc(OC)c1-n1c(NS(=O)(=O)C[C@H](O)c2ccc(C#N)cn2)nnc1-c1ccc(C)o1 (single isomer, unassigned) [Example 66.0, (2R)-2-(5-Cyano-2-pyridinyl)-N-(4-(2,6-dimethoxyphenyl)-5-(5-methyl-2-furanyl)-4H-1,2,4-triazol-3-yl)-2-hydroxyethanesulfonamide or (2S)-2-(5-cyano-2-pyridinyl)-N-(4-(2,6-dimethoxyphenyl)-5-(5-methyl-2-furanyl)-4H-1,2,4-triazol-3-yl)-2-hydroxyethanesulfonamide] |
| 0.36 | COCC[C@@H]([C@H](C)c1ncc(F)cn1)S(=O)(=O)Nc1nnc(-c2ccc(C)o2)n1-c1c(OC)cccc1OC (single isomer, unassigned) [Example 67.0] |
| 0.47 | COCC[C@@H](Cc1ncc(C)cn1)S(=O)(=O)Nc1nnc(-c2ccc(C)o2)n1-c1c(OC)cccc1OC (single isomer, unassigned) [Example 71.0, (2R)—N-(4-(2,6-Dimethoxyphenyl)-5-(5-methyl-2-furanyl)-4H-1,2,4-triazol-3-yl)-4-methoxy-1-(5-methyl-2-pyrimidinyl)-2-butanesulfonamide or (2S)—N-(4-(2,6-dimethoxyphenyl)-5-(5-methyl-2-furanyl)-4H-1,2,4-triazol-3-yl)-4-methoxy-1-(5-methyl-2-pyrimidinyl)-2-butanesulfonamide] |
| 0.48 | COC[C@@H](Cc1ncc(F)cn1)S(=O)(=O)Nc1nnc(-c2ccc(C)o2)n1-c1c(OC)cccc1OC (single isomer, unassigned) [Example 72.0, (2R)—N-(4-(2,6-Dimethoxyphenyl)-5-(5-methyl-2-furanyl)-4H-1,2,4-triazol-3-yl)-1-(5-fluoro-2-pyrimidinyl)-3-methoxy-2-propanesulfonamide or (2S)—N-(4-(2,6-dimethoxyphenyl)-5-(5-methyl-2-furanyl)-4H-1,2,4-triazol-3-yl)-1-(5-fluoro-2-pyrimidinyl)-3-methoxy-2-propanesulfonamide] |
| 0.77 | COC[C@@H](Cc1ncc(F)cn1)S(=O)(=O)Nc1nnc(-c2ccc(C)o2)n1-c1c(OC)cccc1OC (single isomer, unassigned) [Example 78.0, (2R)—N-(4-(2,6-Dimethoxyphenyl)-5-(5-methyl-2-furanyl)-4H-1,2,4-triazol-3-yl)-1-(5-fluoro-2-pyrimidinyl)-3-methoxy-2-propanesulfonamide or (2S)—N-(4-(2,6-dimethoxyphenyl)-5-(5-methyl-2-furanyl)-4H-1,2,4-triazol-3-yl)-1-(5-fluoro-2-pyrimidinyl)-3-methoxy-2-propanesulfonamide] |
| 0.98 | COc1cccc(OC)c1-n1c(NS(=O)(=O)[C@@H](C)[C@@H](O)c2ccc(F)cn2)nnc1-c1ccc(C)o1 (single isomer, unassigned) [Example 79.0] |
| 0.4 | CCc1ccc(-c2nnc(NS(=O)(=O)[C@@H](C)Cc3ncc(F)cn3)n2-c2c(OC)cccc2OC)o1 (single isomer, unassigned) [Example 97.0, (2S)—N-(4-(2,6-Dimethoxyphenyl)-5-(5-ethyl-2-furanyl)-4H-1,2,4-triazol-3-yl)-1-(5-fluoro-2-pyrimidinyl)-2-propanesulfonamide or (2R)—N-(4-(2,6-dimethoxyphenyl)-5-(5-ethyl-2-furanyl)-4H-1,2,4-triazol-3-yl)-1-(5-fluoro-2-pyrimidinyl)-2-propanesulfonamide] |
| 1 | CCc1ccc(-c2nnc(NS(=O)(=O)[C@@H](C)Cc3ncc(F)cn3)n2-c2c(OC)cccc2OC)o1 (single isomer, unassigned) [Example 99.0, (2S)—N-(4-(2,6-Dimethoxyphenyl)-5-(5-ethyl-2-furanyl)-4H-1,2,4-triazol-3-yl)-1-(5-fluoro-2-pyrimidinyl)-2-propanesulfonamide or (2R)—N-(4-(2,6-dimethoxyphenyl)-5-(5-ethyl-2-furanyl)-4H-1,2,4-triazol-3-yl)-1-(5-fluoro-2-pyrimidinyl)-2-propanesulfonamide] |
